Assay results as given in US20170042915A1, “LPA RECEPTOR MODULATORS FOR BROWN FAT DIFFERENTIATION” (The California Institute for Biomedical Research, priority 2015, published 2017).

Assays:
[1] = system: Human Simpson-Golabi-Behmel syndrome (SGBS) preadipocytes; experiment: Brown cell differentiation of SGBS preadipocytes, high content imaging with anti-UCP1 and LipidTox staining; type: cell-based; conditions: concentration not given; for % Brown (adipocytes): day 11, LipidTox and UCP1 positive; for % White (adipocytes): day 11, LipidTox positive, below UCP1 threshold; for UCP1 fold: day 11, UCP1 staining
Experimental: OF Media included 1% Anti-Anti, […] biotin, […] panthotenate, and DMEM:F12 (1:1) media. Growth media included OF Media and 10% Fetal Bovine Serum. Differentiation induction media included OF Media, 10 μg/mL Insulin, 0.5 mM IBMX, and 1 μM Dexamethasone. The maintenance media included OF media and 10 μg/mL Insulin.
Human Simpson-Golabi-Behmel syndrome (SGBS) preadipocyteswere cultured in T225 flasks containing Growth Media. Upon passaging, cells were trypsinized, collected, spun down at 1250 g for 5 minutes at 20° C. to pellet. Cells were then resuspended in growth media before seeding cells at optimal density to maintain 75-80% confluency before passaging every 3-4 days.
Compounds at varying concentrations (starting at 20 uM with 1:3 dilution) were spotted onto 384-well black clear bottom plates (Greiner). The negative control consisted of DMSO while positive controls contained 2 uM of Rosiglitazone (Cayman). 50 μL of SGBS cells in induction were seeded directly on top of compound at a concentration of 1.1×10^5 cells/mL (˜5500 cells/well). After 4 days of induction, media was changed to 50 μL of maintenance media. Every 2-4 days after, media was changed again with 50 μL maintenance media until day 11.
After 11 days of differentiation, cells were fixed with 10 μL of 32% Paraformaldehyde for 10 minutes, followed by 10 μL of 7% Triton X-100 for another 10 minutes. Media was then aspirated down to 5 μL, 25 μL of Blocking Buffer 1 (2% BSA and 2.5% goat serum) was added, and plates were incubated for 1 hour. Plates were then aspirated down to 5 μL and 25 μL of primary antibody was added for 16 hour incubation. Primary antibody containing UCP1 (Sigma; Rabbit; 1:100) was diluted in Blocking Buffer 2 (2% BSA).
The next day, plates were washed 3 times with 1× PBS and 25 μL of secondary antibody were added. Secondary antibody containing Hoechst (1:6000), Alex Fluor 647 goat Anti-Rabbit (1:1000), and HCS LipidTOX Green Neutral Lipid Stain (Life Technologies; 1:800) were diluted in Blocking Buffer 2 (2% BSA). After 1 hour of incubation at room temperature, plates were washed 3 times with 1× PBS and left in 50 μL of PBS. Plates were then sealed and imaged.
Plates were imaged using CellInsight CX5 High Content Screening (HCS) Platform. Total cell number was detected using Hoechstand images were used to quantify total adipocytes (met defined threshold of lipidtox staining intensity).

SGBS preadipocytes = experiment: Brown adipocyte differentiation of SGBS preadipocytes with or without exogenous LPA; type: cell-based, human; conditions: day 11 SGBS adipocytes, compound during days 3-4 of induction, 10 μM LPA during days 1-4; FIG. 6A
Experimental: SGBS preadipocytes were plated in 384 plates as previously described but using induction media with or without the addition of 10 μM lysophosphatidic acid (LPA) for the first 2 days. On day 3, cells were treated with 10 μL of 6× concentration of compound 19 (final concentration was a 1:3 serial dilution starting at 20 μM) again with or without the addition of LPA. On day 5, media was changed to maintenance media until day 11. Staining and analysis of brown adipocytes based on UCP1 and lipid performed as described previously.

SMILES | % Brown (adipocytes) ([1]; 1st of 3 sub-columns) | % Brown (adipocytes) ([1]; 2nd of 3 sub-columns) | % Brown (adipocytes) ([1]; 3rd of 3 sub-columns) | % White (adipocytes) ([1]; 1st of 3 sub-columns) | % White (adipocytes) ([1]; 2nd of 3 sub-columns) | % White (adipocytes) ([1]; 3rd of 3 sub-columns) | UCP1 fold ([1]; 1st of 3 sub-columns) | UCP1 fold ([1]; 2nd of 3 sub-columns) | UCP1 fold ([1]; 3rd of 3 sub-columns) | induction of brown adipocyte differentiation in the presence of exogenous LPA (SGBS preadipocytes)
Cc1ccc(CNC(=O)C2CCN(S(=O)(=O)c3cc(-c4noc(C5CC5)n4)sc3C)CC2)o1 [Compound 1] | 15% | 27% | 30% | 6% | 3% | 4% | 1.2x | 2.6x | 2.7x | –
Cc1nc(-c2cc(S(=O)(=O)N3CCC(C(=O)NCCc4cccs4)CC3)c(C)s2)no1 [Compound 2] | 29% | 34% | 34% | 9% | 8% | 7% | 2.2x | 2.8x | 2.9x | –
Cc1nn(-c2ccccc2)c(C)c1S(=O)(=O)N1CCC(C(=O)NCCc2cccs2)CC1 [Compound 3] | 20% | 28% | 30% | 10% | 8% | 5% | 1.6x | 2.1x | 2.9x | –
Cc1sc(-c2noc(C3CCC3)n2)cc1S(=O)(=O)N1CCC(C(=O)NCc2ccco2)CC1 [Compound 4] | 17% | 22% | 30% | 5% | 7% | 5% | 1.5x | 1.6x | 2.6x | –
Cc1sc(-c2noc(C(C)C)n2)cc1S(=O)(=O)N1CCC(C(=O)NCc2cccs2)CC1 [Compound 5] | 18% | 22% | 28% | 3% | 7% | 7% | 1.8x | 1.8x | 2.2x | –
Cc1sc(-c2noc(C(C)C)n2)cc1S(=O)(=O)N1CCC(C(=O)N(C)Cc2ccco2)CC1 [Compound 6] | 14% | 23% | 29% | 6% | 6% | 5% | 1.2x | 1.7x | 2.4x | –
Cc1ccc(C)c(-c2csc(Nc3ccc(S(=O)(=O)Nc4cc(C)on4)cc3)n2)c1 [Compound 9] | 18% | 21% | 31% | 5% | 6% | 6% | 1.5x | 1.9x | 2.7x | –
COC(=O)c1ccc(NS(=O)(=O)c2ccc(-c3c(C)noc3C)cc2)cc1 [Compound 10] | 17% | 21% | 29% | 6% | 8% | 10% | 1.5x | 1.5x | 2.0x | –
Cc1ccc(NS(=O)(=O)c2ccc(-c3c(C)noc3C)cc2)cc1Cl [Compound 11] | 18% | 22% | 24% | 4% | 6% | 11% | 1.7x | 1.8x | 1.7x | –
COC(=O)CCSCc1ccc(-c2onc(C)c2NC(=O)OC(C)c2ccccc2Cl)cc1 (stereo not shown) [Compound 19] | – | – | – | – | – | – | – | – | – | attenuated induction of brown adipocyte differentiation
